Source: publication doi:10.1101/2024.12.13.628427v1 (biorxiv, 2024)

Biological target: T1, FBXO21 (Homo sapiens, UniProt O94952)
T1 sequence (O94952 1-628): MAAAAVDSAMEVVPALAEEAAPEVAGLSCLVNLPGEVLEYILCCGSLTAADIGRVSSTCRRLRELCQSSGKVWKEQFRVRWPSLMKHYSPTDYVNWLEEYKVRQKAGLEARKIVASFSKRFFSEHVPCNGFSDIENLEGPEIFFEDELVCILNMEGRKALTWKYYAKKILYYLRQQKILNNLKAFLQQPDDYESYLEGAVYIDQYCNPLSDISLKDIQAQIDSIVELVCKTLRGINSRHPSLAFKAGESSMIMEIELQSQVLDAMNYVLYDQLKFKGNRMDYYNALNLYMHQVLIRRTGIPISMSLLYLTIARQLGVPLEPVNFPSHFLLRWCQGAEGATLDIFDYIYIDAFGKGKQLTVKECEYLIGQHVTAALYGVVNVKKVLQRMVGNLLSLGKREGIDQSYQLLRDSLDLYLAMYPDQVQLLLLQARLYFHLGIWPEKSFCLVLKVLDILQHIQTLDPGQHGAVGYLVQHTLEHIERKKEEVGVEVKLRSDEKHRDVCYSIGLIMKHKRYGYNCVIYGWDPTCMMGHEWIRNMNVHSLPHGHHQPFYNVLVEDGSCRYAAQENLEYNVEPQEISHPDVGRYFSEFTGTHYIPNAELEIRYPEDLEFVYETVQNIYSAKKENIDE
Assay: in vitro ubiquitination of GFP-p85α, Western blot
Type: biochemical

IC50: 2.4 nM
SMILES: O=C(O)Cc1cc(-c2ccc(F)cc2)ccc1-c1ccc(F)cc1 [57-057]
